Reference: the supplement of paper PMC10307832

Columns and labels:
Test in all cases: relative viability (nuclei count vs DMSO), 5 days (fraction); higher = more cells survive
Wnt-C59 + Foretinib = compound: CC1=NC=CC(=C1)C2=CC=C(C=C2)CC(=O)NC3=CC=C(C=C3)C4=CN=CC=C4 [Wnt-C59] + COc1cc2c(Oc3ccc(NC(=O)C4(C(=O)Nc5ccc(F)cc5)CC4)cc3F)ccnc2cc1OCCCN1CCOCC1 [Foretinib] (partner 0.25 µM)
In short: (§1)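 Each reported value is a median over duplicate plates. It expresses relative viability: treated-well nuclei count divided by vehicle-well nuclei count. Lung cancer cell lines in 1536-well plates were dosed by pin tool a day after seeding, alone with one drug or with a fixed anchor-drug dose plus five library-drug doses (not always all listed) in √10 steps, and nuclei were counted after 5 days.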

Lapatinib + Pictilisib = compound: CS(=O)(=O)CCNCc1ccc(-c2ccc3ncnc(Nc4ccc(OCc5cccc(F)c5)c(Cl)c4)c3c2)o1 [Lapatinib] + CS(=O)(=O)N1CCN(Cc2cc3nc(-c4cccc5[nH]ncc45)nc(N4CCOCC4)c3s2)CC1 [Pictilisib] (partner 1 µM)
In short: as §1

Wnt-C59 + Crizotinib = compound: CC1=NC=CC(=C1)C2=CC=C(C=C2)CC(=O)NC3=CC=C(C=C3)C4=CN=CC=C4 [Wnt-C59] + C[C@@H](Oc1cc(-c2cnn(C3CCNCC3)c2)cnc1N)c1c(Cl)ccc(F)c1Cl [Crizotinib] (partner 1 µM)
In short: as §1

Lapatinib + Decitabine = compound: CS(=O)(=O)CCNCc1ccc(-c2ccc3ncnc(Nc4ccc(OCc5cccc(F)c5)c(Cl)c4)c3c2)o1 [Lapatinib] + Nc1ncn([C@H]2C[C@H](O)[C@@H](CO)O2)c(=O)n1 [Decitabine] (partner 2 µM)
In short: as §1

For NCI-H661, the relative viability (Wnt-C59 + Foretinib; first compound 0.001 µM) was 1, the relative viability (Wnt-C59 + Foretinib; first compound 0.01 µM) was 0.981 and the relative viability (Wnt-C59 + Foretinib; first compound 0.03162 µM) was 1.06. For the same cell line, the relative viability (Wnt-C59 + Foretinib; first compound 0.1 µM) was 0.976, the relative viability (Lapatinib + Pictilisib; first compound 0.02 µM) was 0.397 and the relative viability (Lapatinib + Pictilisib; first compound 0.06325 µM) was 0.381. The relative viability (Lapatinib + Pictilisib; first compound 0.2 µM) was 0.29, the relative viability (Lapatinib + Pictilisib; first compound 0.6325 µM) was 0.307 and the relative viability (Lapatinib + Pictilisib; first compound 2 µM) was 0.324. For the same cell line, the relative viability (Wnt-C59 + Crizotinib; first compound 0.001 µM) was 1, the relative viability (Wnt-C59 + Crizotinib; first compound 0.01 µM) was 1.05 and the relative viability (Wnt-C59 + Crizotinib; first compound 0.03162 µM) was 0.981. The relative viability (Wnt-C59 + Crizotinib; first compound 0.1 µM) was 0.948, the relative viability (Lapatinib + Decitabine; first compound 0.02 µM) was 0.48 and the relative viability (Lapatinib + Decitabine; first compound 0.06325 µM) was 0.474. For the same cell line, the relative viability (Lapatinib + Decitabine; first compound 0.2 µM) was 0.489, the relative viability (Lapatinib + Decitabine; first compound 0.6325 µM) was 0.387 and the relative viability (Lapatinib + Decitabine; first compound 2 µM) was 0.423.
Work on HCC-15 yielded a relative viability (Wnt-C59 + Foretinib; first compound 0.001 µM) of 1.09, a relative viability (Wnt-C59 + Foretinib; first compound 0.01 µM) of 1.09 and a relative viability (Wnt-C59 + Foretinib; first compound 0.03162 µM) of 1.04. The relative viability (Wnt-C59 + Foretinib; first compound 0.1 µM) was 0.992, the relative viability (Lapatinib + Pictilisib; first compound 0.06325 µM) was 0.734 and the relative viability (Lapatinib + Pictilisib; first compound 0.2 µM) was 0.767. It also gave a relative viability (Lapatinib + Pictilisib; first compound 0.6325 µM) of 0.725, a relative viability (Lapatinib + Pictilisib; first compound 2 µM) of 0.638 and a relative viability (Wnt-C59 + Crizotinib; first compound 0.001 µM) of 0.891. The relative viability (Wnt-C59 + Crizotinib; first compound 0.01 µM) was 0.82, the relative viability (Wnt-C59 + Crizotinib; first compound 0.03162 µM) was 0.919 and the relative viability (Wnt-C59 + Crizotinib; first compound 0.1 µM) was 0.85. It also gave a relative viability (Lapatinib + Decitabine; first compound 0.06325 µM) of 0.537, a relative viability (Lapatinib + Decitabine; first compound 0.2 µM) of 0.677 and a relative viability (Lapatinib + Decitabine; first compound 0.6325 µM) of 0.64. It also gave a relative viability (Lapatinib + Decitabine; first compound 2 µM) of 0.568.
NCI-H2405 showed a relative viability (Wnt-C59 + Foretinib; first compound 0.001 µM) of 1.04, a relative viability (Wnt-C59 + Foretinib; first compound 0.01 µM) of 0.94 and a relative viability (Wnt-C59 + Foretinib; first compound 0.03162 µM) of 0.938. It also gave a relative viability (Wnt-C59 + Foretinib; first compound 0.1 µM) of 0.941, a relative viability (Lapatinib + Pictilisib; first compound 0.06325 µM) of 0.412 and a relative viability (Lapatinib + Pictilisib; first compound 0.2 µM) of 0.428. For the same cell line, the relative viability (Lapatinib + Pictilisib; first compound 0.6325 µM) was 0.398, the relative viability (Lapatinib + Pictilisib; first compound 2 µM) was 0.397 and the relative viability (Wnt-C59 + Crizotinib; first compound 0.001 µM) was 0.833. It also gave a relative viability (Wnt-C59 + Crizotinib; first compound 0.01 µM) of 0.806, a relative viability (Wnt-C59 + Crizotinib; first compound 0.03162 µM) of 0.812 and a relative viability (Wnt-C59 + Crizotinib; first compound 0.1 µM) of 0.779. The relative viability (Lapatinib + Decitabine; first compound 0.06325 µM) was 0.602, the relative viability (Lapatinib + Decitabine; first compound 0.6325 µM) was 0.709 and the relative viability (Lapatinib + Decitabine; first compound 2 µM) was 0.616.
Cell Line NCI-H838 has a relative viability (Wnt-C59 + Foretinib; first compound 0.001 µM) of 1.04, a relative viability (Wnt-C59 + Foretinib; first compound 0.01 µM) of 0.961 and a relative viability (Wnt-C59 + Foretinib; first compound 0.03162 µM) of 1.08. It also gave a relative viability (Wnt-C59 + Foretinib; first compound 0.1 µM) of 1.03, a relative viability (Lapatinib + Pictilisib; first compound 0.02 µM) of 0.48 and a relative viability (Lapatinib + Pictilisib; first compound 0.06325 µM) of 0.409. For the same cell line, the relative viability (Lapatinib + Pictilisib; first compound 0.2 µM) was 0.505, the relative viability (Lapatinib + Pictilisib; first compound 0.6325 µM) was 0.449 and the relative viability (Lapatinib + Pictilisib; first compound 2 µM) was 0.458. For the same cell line, the relative viability (Wnt-C59 + Crizotinib; first compound 0.001 µM) was 0.839, the relative viability (Wnt-C59 + Crizotinib; first compound 0.01 µM) was 0.826 and the relative viability (Wnt-C59 + Crizotinib; first compound 0.03162 µM) was 0.902. For the same cell line, the relative viability (Wnt-C59 + Crizotinib; first compound 0.1 µM) was 0.916, the relative viability (Lapatinib + Decitabine; first compound 0.02 µM) was 0.475 and the relative viability (Lapatinib + Decitabine; first compound 0.06325 µM) was 0.453. The relative viability (Lapatinib + Decitabine; first compound 0.2 µM) was 0.495, the relative viability (Lapatinib + Decitabine; first compound 0.6325 µM) was 0.484 and the relative viability (Lapatinib + Decitabine; first compound 2 µM) was 0.44.
EPLC-272H was tested, and the relative viability (Wnt-C59 + Foretinib; first compound 0.001 µM) was 0.722, the relative viability (Wnt-C59 + Foretinib; first compound 0.01 µM) was 0.667 and the relative viability (Wnt-C59 + Foretinib; first compound 0.03162 µM) was 0.831. For the same cell line, the relative viability (Wnt-C59 + Foretinib; first compound 0.1 µM) was 0.697, the relative viability (Lapatinib + Pictilisib; first compound 0.06325 µM) was 0.207 and the relative viability (Lapatinib + Pictilisib; first compound 0.2 µM) was 0.386. The relative viability (Lapatinib + Pictilisib; first compound 0.6325 µM) was 0.381, the relative viability (Lapatinib + Pictilisib; first compound 2 µM) was 0.293 and the relative viability (Wnt-C59 + Crizotinib; first compound 0.001 µM) was 0.955. For the same cell line, the relative viability (Wnt-C59 + Crizotinib; first compound 0.01 µM) was 0.8, the relative viability (Wnt-C59 + Crizotinib; first compound 0.03162 µM) was 0.874 and the relative viability (Wnt-C59 + Crizotinib; first compound 0.1 µM) was 0.53. For the same cell line, the relative viability (Lapatinib + Decitabine; first compound 0.06325 µM) was 0.361, the relative viability (Lapatinib + Decitabine; first compound 0.2 µM) was 0.352 and the relative viability (Lapatinib + Decitabine; first compound 0.6325 µM) was 0.34. It also gave a relative viability (Lapatinib + Decitabine; first compound 2 µM) of 0.366.
NCI-H1915 was tested, and the relative viability (Wnt-C59 + Foretinib; first compound 0.001 µM) was 1.12, the relative viability (Wnt-C59 + Foretinib; first compound 0.01 µM) was 1.03 and the relative viability (Wnt-C59 + Foretinib; first compound 0.03162 µM) was 1.16. The relative viability (Wnt-C59 + Foretinib; first compound 0.1 µM) was 1.09, the relative viability (Lapatinib + Pictilisib; first compound 0.06325 µM) was 0.909 and the relative viability (Lapatinib + Pictilisib; first compound 0.2 µM) was 0.982. For the same cell line, the relative viability (Lapatinib + Pictilisib; first compound 0.6325 µM) was 0.981, the relative viability (Lapatinib + Pictilisib; first compound 2 µM) was 0.949 and the relative viability (Wnt-C59 + Crizotinib; first compound 0.001 µM) was 0.771. For the same cell line, the relative viability (Wnt-C59 + Crizotinib; first compound 0.01 µM) was 0.852, the relative viability (Wnt-C59 + Crizotinib; first compound 0.03162 µM) was 1.02 and the relative viability (Wnt-C59 + Crizotinib; first compound 0.1 µM) was 0.912. It also gave a relative viability (Lapatinib + Decitabine; first compound 0.06325 µM) of 0.284, a relative viability (Lapatinib + Decitabine; first compound 0.2 µM) of 0.248 and a relative viability (Lapatinib + Decitabine; first compound 0.6325 µM) of 0.253. It also gave a relative viability (Lapatinib + Decitabine; first compound 2 µM) of 0.255.
For EMC-BAC-2, the relative viability (Wnt-C59 + Foretinib; first compound 0.001 µM) was 0.946, the relative viability (Wnt-C59 + Foretinib; first compound 0.01 µM) was 0.964 and the relative viability (Wnt-C59 + Foretinib; first compound 0.03162 µM) was 0.967. For the same cell line, the relative viability (Wnt-C59 + Foretinib; first compound 0.1 µM) was 0.561, the relative viability (Lapatinib + Pictilisib; first compound 0.02 µM) was 0.355 and the relative viability (Lapatinib + Pictilisib; first compound 0.06325 µM) was 0.433. It also gave a relative viability (Lapatinib + Pictilisib; first compound 0.2 µM) of 0.504, a relative viability (Lapatinib + Pictilisib; first compound 0.6325 µM) of 0.581 and a relative viability (Lapatinib + Pictilisib; first compound 2 µM) of 0.493. For the same cell line, the relative viability (Wnt-C59 + Crizotinib; first compound 0.001 µM) was 0.642, the relative viability (Wnt-C59 + Crizotinib; first compound 0.01 µM) was 0.649 and the relative viability (Wnt-C59 + Crizotinib; first compound 0.03162 µM) was 0.636. It also gave a relative viability (Wnt-C59 + Crizotinib; first compound 0.1 µM) of 0.678, a relative viability (Lapatinib + Decitabine; first compound 0.06325 µM) of 0.864 and a relative viability (Lapatinib + Decitabine; first compound 0.6325 µM) of 0.945. It also gave a relative viability (Lapatinib + Decitabine; first compound 2 µM) of 0.956.
